Test results published in patent US12065443B2, “Compounds and pharmaceutical compositions thereof for the treatment of diseases” (priority 2017, dated 2024).
Read-outs that look alike come from different tables or passages of the source.

Assays:
SIK2 = target: T1, SIK2 (Homo sapiens, UniProt Q9H0K1); assay: biochemical; conditions: 33P radioactive SIK kinase assay, AMARA peptide, 10 μM ATP
T1 construct: purchased ThermoFisher Scientific PV4792
How it was run: (§1)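 Read-out: ^33P incorporated into AMARA peptide, counted on filter plates, taken as kinase activity. Reactions start on addition of labeled/unlabeled ATP to enzyme plus substrate and end with phosphoric acid. Controls: 1% DMSO (negative) and 10 μM staurosporine (positive), final.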

SIK1 = target: T2, SIK1 (Homo sapiens, UniProt P57059); assay: biochemical; conditions: 33P radioactive SIK kinase assay, AMARA peptide, 10 μM ATP; read-out: SIK1 IC50
T2 construct: purchased Carna Biosciences 02-131
How it was run: as §1

SIK3 = target: T3, SIK3 (Homo sapiens, UniProt Q9Y2K2); assay: biochemical
T3 construct: purchased SignalChem S12-11G-100
How it was run: as §1

[1] = tested on: LPS-induced TNFα secretion in monocyte-derived macrophages (MdM); assay: MdM assay: LPS-triggered TNFα (ELISA); format: cell-based, human; conditions: LPS-triggered TNFα inhibition
Experimental: This assay evaluates illustrative compounds of the invention for their inhibition of LPS-induced TNFα and LPS triggered IL-10 secretion in monocyte-derived macrophages.
PBMCs are isolated from human blood samples (buffycoats). The buffy coat is aseptically transferred into a 50 mL Falcon tube, and diluted 1/2 in PBS. Falcon tubes are filled with 20 mL Lymphoprep™, on top of which 25 mL of the buffy coat is carefully added, tubes are centrifuged for 35 min at 400 g in temperature controlled centrifuge, without brake, at 25° C. PBMCs are aspirated from the white interface layer between sample and Lymphoprep™. PBMCs are washed five times in PBS.
PBMCs are centrifuged at 300×g for 10 min and resuspended at a density of 1.0E07 cells/80 μL Miltenyi buffer (PBS, pH 7.4, 1% FBS, 2 mM EDTA).
Starting from this point of the protocol all steps are performed on ice. 20 μL of CD14+ micro-beads are added per 1.0E07 cells, the tube is mixed and incubated for 15 min in the fridge at 4° C. Cell suspension volume is adjusted to total volume of 100 mL using Miltenyi buffer, mixed gently and subsequently centrifuged for 10 min at 300× g. Supernantant is discarded and cell pellet is resuspended in 12 mL of Miltenyi buffer.
Four LS columns are placed in the MACS Separator (magnet) from Miltenyi Biotec, and are prewet by rinsing with 3 mL of MACS buffer per column. Three mL of cell suspension is added onto the column (max 1*10^8 of labelled cells/column), and columns are subsequently washed 3 times with 3 mL of Miltenyi buffer.
The columns are removed from the magnets, and 5 mL of Miltenyi buffer are added to the column to flush out the CD14+ fraction by pushing the plunger into the column. The flushed fractions are collected in a fresh 50 mL Falcon and volume is adjusted to 30 mL using Miltenyi buffer, cells are centrifuged for 10 min at 300× g. The obtained cell pellet is resuspended in 10 mL RPMI w/o FBS, and cell density is determined using a hematologic analyser (Sysmex XS-500i).
On day 10, MdMs are triggered and compound is added.
A compound dilution plate is made in 100% DMSO by 3-fold dilution of 10 mM stock solution. An intermediate dilution plate (10× final concentration) is made by diluting the compound dilution plate 50-fold in RPMI medium.
Medium is carefully removed from cell plates using multichannel pipette, and replaced by 80 μL fresh medium. 10 μL of the 10× final concentration compound is added to the cells and incubated for 1 hour at 37° C. before addition of trigger. No trigger conditions/trigger conditions are spiked with equal final DMSO concentrations of 0.2% DMSO. 10 μL of 10×LPS (final conc. 200 ng/mL) solution are added to all wells except for the ‘no trigger wells’ where 10 μL medium is added. Supernatant is collected after 2 h (IL-10 determination) and after 20 h (TNFα determination) of LPS triggering.
The plate is then washed once with PBST (PBS+0.05% Tween20) and once with PBS followed by the addition of 100 μL of blocking buffer (1% Bovine Serum Albumin (BSA)-5% Sucrose) and plates are sealed and incubated for at least 4 h at RT. After washing the plate once with PBST and once with PBS, 40 μL of standard or sample are added (TNFα standard curve is prepared using a 1/2 serial dilution starting from 16000 pg/mL; dilutions are made in dilution buffer (PBS+1% BSA)). Plates are washed twice with PBST, and once with PBS, after which 35 μL of the detection antibody is added (final concentration 0.25 μg/mL diluted in dilution buffer) and plates are incubated for at least 2 h at RT. Plates are washed twice with PBST, and once with PBS, where after 35 μL of Strep-HRP conjugate (0.5 μg/mL final concentration diluted in dilution buffer) is added. Plates are incubated in the dark, at RT for at least 45 min but no longer than 1 hour. Plates are washed twice with PBST, and once with PBS.

T1 sequence (Q9H0K1 whole entry): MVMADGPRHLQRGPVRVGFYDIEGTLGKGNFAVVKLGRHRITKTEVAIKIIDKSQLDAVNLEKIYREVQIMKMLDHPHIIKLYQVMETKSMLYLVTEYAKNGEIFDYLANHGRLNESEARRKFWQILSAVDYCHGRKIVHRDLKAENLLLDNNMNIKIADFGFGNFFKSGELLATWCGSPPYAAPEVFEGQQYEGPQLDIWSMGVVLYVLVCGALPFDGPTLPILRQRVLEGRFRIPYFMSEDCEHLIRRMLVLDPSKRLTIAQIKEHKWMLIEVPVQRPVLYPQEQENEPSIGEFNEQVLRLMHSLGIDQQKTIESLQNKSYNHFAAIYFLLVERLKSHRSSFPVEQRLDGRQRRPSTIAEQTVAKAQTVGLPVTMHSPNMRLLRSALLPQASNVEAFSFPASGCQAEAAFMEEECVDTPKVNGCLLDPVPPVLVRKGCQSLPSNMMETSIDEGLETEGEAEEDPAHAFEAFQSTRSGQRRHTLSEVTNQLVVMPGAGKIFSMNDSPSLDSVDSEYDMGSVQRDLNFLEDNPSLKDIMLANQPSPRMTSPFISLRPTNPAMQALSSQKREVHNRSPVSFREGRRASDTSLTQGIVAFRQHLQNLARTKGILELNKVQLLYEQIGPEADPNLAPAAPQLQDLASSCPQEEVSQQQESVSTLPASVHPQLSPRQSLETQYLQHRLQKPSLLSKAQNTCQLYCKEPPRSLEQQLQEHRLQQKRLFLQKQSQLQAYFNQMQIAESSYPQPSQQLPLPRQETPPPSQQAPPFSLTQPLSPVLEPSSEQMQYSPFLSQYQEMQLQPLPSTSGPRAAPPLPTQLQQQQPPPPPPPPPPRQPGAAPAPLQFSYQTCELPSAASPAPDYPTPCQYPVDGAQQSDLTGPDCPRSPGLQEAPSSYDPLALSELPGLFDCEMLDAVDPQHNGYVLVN
T2 sequence (P57059 whole entry): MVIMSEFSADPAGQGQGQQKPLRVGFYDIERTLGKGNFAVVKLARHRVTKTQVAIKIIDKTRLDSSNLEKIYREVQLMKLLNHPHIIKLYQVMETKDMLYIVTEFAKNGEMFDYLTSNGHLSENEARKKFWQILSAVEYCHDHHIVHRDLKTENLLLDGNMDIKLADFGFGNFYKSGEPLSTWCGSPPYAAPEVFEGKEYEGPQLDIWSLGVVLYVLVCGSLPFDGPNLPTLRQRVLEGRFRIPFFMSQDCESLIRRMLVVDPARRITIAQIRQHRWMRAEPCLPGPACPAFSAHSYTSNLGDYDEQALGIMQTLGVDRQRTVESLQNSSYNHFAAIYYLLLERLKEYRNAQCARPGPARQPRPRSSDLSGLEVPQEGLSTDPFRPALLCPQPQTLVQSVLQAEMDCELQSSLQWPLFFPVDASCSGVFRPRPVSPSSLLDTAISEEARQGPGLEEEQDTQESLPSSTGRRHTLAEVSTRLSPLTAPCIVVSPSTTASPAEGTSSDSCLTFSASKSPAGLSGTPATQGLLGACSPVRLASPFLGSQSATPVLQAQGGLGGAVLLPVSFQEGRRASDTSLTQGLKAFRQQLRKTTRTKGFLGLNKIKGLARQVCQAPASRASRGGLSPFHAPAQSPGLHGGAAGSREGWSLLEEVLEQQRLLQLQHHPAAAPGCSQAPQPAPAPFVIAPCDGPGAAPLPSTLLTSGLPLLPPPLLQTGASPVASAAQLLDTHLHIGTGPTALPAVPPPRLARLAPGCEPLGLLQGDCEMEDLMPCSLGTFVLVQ
T3 sequence (Q9Y2K2 whole entry): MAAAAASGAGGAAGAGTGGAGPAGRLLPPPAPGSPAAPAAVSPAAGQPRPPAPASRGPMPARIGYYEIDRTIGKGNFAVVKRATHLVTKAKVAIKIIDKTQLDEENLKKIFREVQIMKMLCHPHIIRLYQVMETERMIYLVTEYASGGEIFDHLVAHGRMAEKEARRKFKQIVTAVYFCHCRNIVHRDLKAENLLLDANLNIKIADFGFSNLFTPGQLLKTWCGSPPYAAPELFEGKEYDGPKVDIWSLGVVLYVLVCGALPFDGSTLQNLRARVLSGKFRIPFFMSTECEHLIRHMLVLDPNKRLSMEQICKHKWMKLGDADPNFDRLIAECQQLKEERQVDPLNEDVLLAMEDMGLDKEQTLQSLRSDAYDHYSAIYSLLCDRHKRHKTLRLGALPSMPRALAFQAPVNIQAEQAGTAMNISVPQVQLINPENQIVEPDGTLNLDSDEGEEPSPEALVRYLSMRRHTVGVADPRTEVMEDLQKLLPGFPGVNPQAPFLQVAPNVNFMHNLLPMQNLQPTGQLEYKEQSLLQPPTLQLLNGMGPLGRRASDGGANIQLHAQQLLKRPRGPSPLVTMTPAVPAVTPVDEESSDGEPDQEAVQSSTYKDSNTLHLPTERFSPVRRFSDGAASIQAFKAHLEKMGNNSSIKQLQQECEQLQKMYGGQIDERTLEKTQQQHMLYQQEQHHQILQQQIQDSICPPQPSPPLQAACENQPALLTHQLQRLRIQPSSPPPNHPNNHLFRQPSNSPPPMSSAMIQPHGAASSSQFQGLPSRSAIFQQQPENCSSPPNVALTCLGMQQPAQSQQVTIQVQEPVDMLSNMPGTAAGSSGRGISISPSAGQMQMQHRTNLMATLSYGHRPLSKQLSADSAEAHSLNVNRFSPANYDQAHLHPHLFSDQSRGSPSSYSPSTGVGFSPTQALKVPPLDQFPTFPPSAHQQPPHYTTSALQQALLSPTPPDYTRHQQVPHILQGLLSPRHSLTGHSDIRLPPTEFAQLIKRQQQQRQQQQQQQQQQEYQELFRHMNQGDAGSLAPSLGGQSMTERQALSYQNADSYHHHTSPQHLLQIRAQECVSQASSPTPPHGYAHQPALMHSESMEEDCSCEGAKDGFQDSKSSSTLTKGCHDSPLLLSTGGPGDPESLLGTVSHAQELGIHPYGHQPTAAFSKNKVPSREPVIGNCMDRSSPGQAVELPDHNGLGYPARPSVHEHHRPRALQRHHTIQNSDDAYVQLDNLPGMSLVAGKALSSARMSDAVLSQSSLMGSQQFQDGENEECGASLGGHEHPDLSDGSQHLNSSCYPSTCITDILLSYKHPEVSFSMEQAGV

Structure (SMILES)	IC50 (SIK2) [nM]	IC50 (SIK1) [nM]	IC50 (SIK3) [nM]	EC50 ([1]; Homo sapiens, Macrophage) [nM]	IC50 (SIK3; 33P radioactive SIK kinase assay, AMARA peptide, 15 μM ATP) [nM]	EC50 [1] [nM]
CCNC(=O)c1c(OC)cc(-c2cnc3cc(-c4cnn(C(F)F)c4)ccn23)cc1OC(F)F [compound 151, 2-(difluoromethoxy)-4-[7-[1-(difluoromethyl)pyrazol-4-yl]imidazo[1,2-a]pyridin-3-yl]-N-ethyl-6-methoxy-benzamide]	0.01 to 10	0.01 to 10	0.01 to 10	0.1 to 100	–	–
COc1cc(-n2cnc3cc(-c4cnc(C)[nH]4)ccc32)cc(OC)c1C(=O)NCC(F)(F)F [compound 152, 2,6-dimethoxy-4-[5-(2-methyl-1H-imidazol-5-yl)benzimidazol-1-yl]-N(2,2,2-trifluoroethyl)benzamide]	10 to 100	10 to 100	10 to 100	1000 to 5000	–	–
COc1cc(-n2cnc3cc(-c4cnn(C)c4)ccc32)cc(OC)c1C(=O)N[C@@H]1C[C@H]1CO [compound 156, N-[(1R,2R)-2-(hydroxymethyl)cyclopropyl]-2,6-dimethoxy-4-[5-(1-methylpyrazol-4-yl)benzimidazol-1-yl]benzamide]	10 to 100	10 to 100	10 to 100	1000 to 5000	–	–
COc1cc(-n2cnc3cc(-c4cnn(C)c4)ccc32)cc(OC)c1C(=O)N[C@@H]1C[C@H]1C(F)F [compound 157]	10 to 100	10 to 100	10 to 100	100 to 1000	–	–
COc1cc(-n2cnc3cc(-c4cnn(C)c4)ccc32)cc(OC)c1C(=O)N[C@@H]1CC[C@H]1O [compound 159, N-[(1R,2R)-2-hydroxycyclobutyl]-2,6-dimethoxy-4-[5-(1-methylpyrazol-4-yl)benzimidazol-1-yl]benzamide]	10 to 100	10 to 100	10 to 100	100 to 1000	–	–
COc1cc(-n2cnc3cc(-c4cn(C)nn4)ccc32)cc(OC)c1C(=O)NCC(F)(F)F [compound 160, 2,6-dimethoxy-4-[5-(1-methyltriazol-4-yl)benzimidazol-1-yl]-N-(2,2,2-trifluoroethyl)benzamide]	10 to 100	10 to 100	10 to 100	100 to 1000	–	–
COc1cc(-n2cnc3cc(-c4cnn(C)c4)ccc32)cc(OC)c1C(=O)NCCN [compound 163, N-(2-aminoethyl)-2,6-dimethoxy-4-[5-(1-methylpyrazol-4-yl)benzimidazol-1-yl]benzamide]	10 to 100	10 to 100	10 to 100	> 5000	–	–
COc1cc(-c2cnc3cc(-c4cnn(C)c4)ccn23)cc(OC)c1C(=O)NC(C)C [compound 171, N-isopropyl-2,6-dimethoxy-4-[7-(1-methylpyrazol-4-yl)imidazo[1,2-a]pyridin-3-yl]benzamide]	10 to 100	10 to 100	10 to 100	0.1 to 100	–	–
COc1cc(-c2cnc3cc(-c4cnn(C)c4)ccn23)cc(NCCO)c1C(=O)NCC(F)(F)F [compound 205, 2-(2-hydroxyethylamino)-6-methoxy-4-[7-(1-methylpyrazol-4-yl)imidazo[1,2-a]pyridin-3-y 1]-N-(2,2,2-trifluoroethyl)benzamide]	0.01 to 10	10 to 100	0.01 to 10	0.1 to 100	–	–
COc1cc(-c2cnc3cc(-c4cnn(C)c4)ccn23)cc(OC)c1C(=O)N1CC(C)(C)C1 [compound 208, [2,6-dimethoxy-4-[7-(1-methylpyrazol-4-yl)imidazo[1,2-a]pyridin-3-yl]phenyl]-(3,3-dimethylazetidin-1-yl)methanone]	0.01 to 10	0.01 to 10	0.01 to 10	100 to 1000	–	–
COc1cc(-c2cnc3cc(-c4cnn(C)c4)ccn23)cc(OC)c1C(=O)N1CCC(C#N)C1 (stereo not drawn) [compound 210, 1-[2,6-dimethoxy-4-[7-(1-methylpyrazol-4-yl)imidazo[1,2-a]pyridin-3-yl]benzoyl]pyrrolidine-3-carbonitrile]	10 to 100	10 to 100	0.01 to 10	100 to 1000	–	–
C#CC1(O)CN(C(=O)c2c(OC)cc(-n3cnc4cc(-c5cnn(C)c5)ccc43)cc2OC)C1 [compound 221, [2,6-dimethoxy-4-[5-(1-methylpyrazol-4-yl)benzimidazol-1-yl]phenvl]-(3-ethynyl-3-hydroxy-azetidin-1-yl)methanone]	10 to 100	10 to 100	10 to 100	100 to 1000	–	–
COc1cc(-c2cnc3cc(-c4cc(C)no4)ccn23)cc(OC)c1C(=O)NCC(F)(F)F [compound 232, 2,6-dimethoxy-4-[7-(3-methylisoxazol-5-yl)imidazo[1,2-a]pyridin-3-yl]-N-(2,2,2-trifluoroethyl)benzamide]	0.01 to 10	10 to 100	0.01 to 10	0.1 to 100	–	–
COc1cc(-c2cnc3cc(-c4cnn(CC(=O)OC5CC5)c4)ccn23)cc(OC)c1C(=O)NCC(F)(F)F [compound 234, cyclopropyl 2-[4-[3-[3,5-dimethoxy-4-(2,2,2-trifluoroethyl-carbamoyl)phenyl]imidazo[1,2-a]pyridin-7-yl]pyrazol-1-yl]acelate]	0.01 to 10	0.01 to 10	0.01 to 10	0.1 to 100	–	–
COc1ncc(-c2ccn3c(-c4cc(OC)c(C(=O)NCC(F)(F)F)c(OC)c4)cnc3c2)cn1 [compound 241, 2,6-dimethoxy-4-[7-(2-methoxypyrimidin-5-yl)imidazo[1,2-a]pyridin-3-yl]-N-(2,2,2-trifluoroethyl)benzamide]	100 to 500	100 to 500	10 to 100	100 to 1000	–	–
COc1cc(-c2cnc3cc(-c4cncnc4)ccn23)cc(OC)c1C(=O)NCC(F)(F)F [compound 242, 2,6-dimethoxy-4-(7-pyrimidin-5-ylimidazo[1,2-a]pyridin-3-yl)-N-(2,2,2-trifluoroethyl)benzamide]	100 to 500	100 to 500	10 to 100	1000 to 5000	–	–
COc1cc(-c2cnc3cc(-c4cnn(C(C)C(=O)OC(C)(C)C)c4)ccn23)cc(OC)c1C(=O)NCC(F)(F)F (stereo not drawn) [compound 243, tert-butyl 2-[4-[3-[3,5-dimethoxy-4-(2,2,2-trifluoroethyl-carbamoyl)phenyl]imidazol[1,2-a]pyridin-7-yl]pyrazol-1-yl]propanoate]	0.01 to 10	0.01 to 10	0.01 to 10	0.1 to 100	–	–
COC(=O)C(C)n1cc(-c2ccn3c(-c4cc(OC)c(C(=O)NCC(F)(F)F)c(OC)c4)cnc3c2)cn1 (stereo not drawn) [compound 244, methyl 2-[4-[3-[3,5-diinethoxy-4-(2,2,2-trifluoroethyl-carbamoyl)phenyl]imidazo[1,2-a]pyridin-7-yl]pyrazol-1-yl]propanoate]	0.01 to 10	0.01 to 10	–	–	0.01 to 10	0.1 to 100
